Structures can show the parent of a compound that is named as a salt.
Columns and labels:
[1] = target: T1, dipeptidyl peptidase IV (Rattus norvegicus, UniProt P14740); test: Determination of dipeptidyl peptidase IV inhibitory activity in rat plasma (Experimental Example 1); format: biochemical; settings: plasma of SD rat, substrate Gly-Pro-p-NA, 30° C., absorbance 405 nm after 1 hr; Table 5
T1 construct: from tissue; host or cells: SD rat blood plasma
Description: (§1) Determination of Dipeptidyl Peptidase IV Inhibitory Activity in Rat Plasma
(§2) A dimethylformamide solution (1 μL) containing the test compound was added to a mixture of water (69 μL), 1 M Tris-hydrochloride buffer (10 μL, pH 7.5) and 1 mM aqueous Gly-Pro-p-NA solution (100 μL) to prepare a mixed solution. Plasma (20 μL) prepared from blood of SD rat according to a conventional method was added to the above-mentioned mixed solution and the enzyme reaction was started at 30° C. The absorbance after 0 hr. and 1 hr. was measured using a microplate reader at a wavelength of 405 nm and an increase (AODs) was determined. At the same time, an increase (AODc) in absorbance of the reaction mixture without the test compound, and an increase (AODb) in absorbance of the reaction mixture without the test compound and the enzyme were determined and the inhibition rate of dipeptidyl peptidase IV enzyme activity was calculated from the following formula:
(§3) {1−[(ΔODs−ΔODb)/(ΔODc−ΔODb)]}×100
The dipeptidyl peptidase IV inhibitory activity of the test compound group is expressed in IC50 value (nM) and shown in Table 5.

[2] = target: T1, dipeptidyl peptidase IV; test: Determination of dipeptidyl peptidase IV inhibitory activity in rat plasma (Experimental Example 2); format: biochemical; settings: plasma of SD rat, same manner as Experimental Example 1; Table 6
Description: as §2, §3, §1

T1 sequence (P14740 37-767 limits assumed): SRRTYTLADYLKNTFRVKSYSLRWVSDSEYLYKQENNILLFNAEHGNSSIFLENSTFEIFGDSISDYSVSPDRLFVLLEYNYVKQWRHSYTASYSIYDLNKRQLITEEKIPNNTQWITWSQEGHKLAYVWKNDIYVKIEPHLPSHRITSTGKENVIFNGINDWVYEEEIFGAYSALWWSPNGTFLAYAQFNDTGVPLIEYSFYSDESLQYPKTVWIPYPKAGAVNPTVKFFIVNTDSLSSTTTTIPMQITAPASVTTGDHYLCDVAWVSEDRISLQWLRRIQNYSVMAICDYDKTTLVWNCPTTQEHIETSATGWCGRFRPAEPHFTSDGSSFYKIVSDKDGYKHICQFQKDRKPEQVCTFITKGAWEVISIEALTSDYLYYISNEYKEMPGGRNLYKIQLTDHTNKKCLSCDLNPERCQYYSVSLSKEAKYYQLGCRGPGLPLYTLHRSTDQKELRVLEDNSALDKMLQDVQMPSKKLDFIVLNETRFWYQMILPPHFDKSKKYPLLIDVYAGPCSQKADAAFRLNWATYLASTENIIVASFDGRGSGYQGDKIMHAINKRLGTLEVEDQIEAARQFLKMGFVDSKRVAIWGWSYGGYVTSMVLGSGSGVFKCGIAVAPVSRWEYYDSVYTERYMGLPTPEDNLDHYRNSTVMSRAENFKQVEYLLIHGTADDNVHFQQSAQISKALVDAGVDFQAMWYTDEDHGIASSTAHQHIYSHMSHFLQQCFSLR

Compound | IC50 [1] [nM] | IC50 [2] [nM]
CCc1nc(CC(C)C)c(CN)c(-c2ccc(C)cc2)c1CC(=O)O [Example 1, [5-(aminomethyl)-2-ethyl-6-isobutyl-4-(4-methylphenyl)pyridin-3-yl]acetic acid] | 33 | –
CCc1nc(CC(C)(C)C)c(CN)c(-c2ccc(C)cc2)c1CC(=O)Nc1cccc(C(C)=O)c1 [Example 5, N-(3-acetylphenyl)-2-[5-(aminomethyl)-2-ethyl-4-(4-methylphenyl)-6-neopentylpyridin-3-yl]acetamide dihydrochloride] | – | 5.1
CCc1nc(CC(C)(C)C)c(CN)c(-c2ccc(C)cc2)c1CC(=O)Nc1cccc(S(C)(=O)=O)c1 [Example 7, 2-[5-(aminomethyl)-2-ethyl-4-(4-methylphenyl)-6-neopentylpyridin-3-yl]-N-[3-(methylsulfonyl)phenyl]acetamide dihydrochloride] | – | 51
Cc1ccc(-c2c(CN)c(CC(C)C)nc(CC(C)C)c2CC(=O)N2C[C@@H](C)O[C@@H](C)C2)cc1 [Example 20] | 8.4 | –
CCc1nc(CC(C)(C)C)c(CN)c(-c2ccc(C)cc2)c1CC(=O)N1C[C@@H](C)O[C@@H](C)C1 [Example 64] | 1.7 | –
CCc1nc(CC(C)(C)C)c(CN)c(-c2ccc(C)cc2)c1CC(=O)Nc1ccc(C(C)=O)cc1 [Example 80] | 11 | –
CCc1nc(CC(C)(C)C)c(CN)c(-c2ccc(C)cc2)c1CC(=O)N1CCN(C(C)=O)CC1 [Example 89] | 3.6 | –

More lines, now with the values ahead:

IC50 [1] [nM] | IC50 [2] [nM] | Compound
– | 35 | Cc1ccc(-c2c(CN)c(CC(C)C)nc(CC(C)C)c2CC(=O)O)cc1 [Example 2, [5-(aminomethyl)-2,6-diisobutyl-4-(4-methylphenyl)pyridin-3-yl]acetic acid dihydrochloride]
– | 2.7 | CCc1nc(CC(C)(C)C)c(CN)c(-c2ccc(C)cc2)c1CC(=O)N1CCC[C@H]1C(N)=O [Example 6, 1-{[5-(aminomethyl)-2-ethyl-4-(4-methylphenyl)-6-neopentylpyridin-3-yl]acetyl}-L-prolinamide]
0.85 | – | Cc1ccc(-c2c(CN)c(CC(C)C)nc(CC(C)C)c2CC(=O)N2CCC(S(C)(=O)=O)C2)cc1 (stereo not shown) [Example 10, [(2,6-diisobutyl-4-(4-methylphenyl)-5-{2-[3-(methylsulfonyl)pyrrolidin-1-yl]-2-oxoethyl}pyridin-3-yl)methyl]amine ditrifluoroacetate]
2 | – | Cc1ccc(-c2c(CN)c(CC(C)C)nc(CC(C)C)c2CC(=O)N2CCC[C@H]2C(N)=O)cc1 [Example 45]
4.8 | – | CC(=O)N1CCN(C(=O)Cc2c(CC(C)C)nc(CC(C)C)c(CN)c2-c2ccc(C)cc2)CC1 [Example 47]
0.32 | – | CCc1nc(CC(C)(C)C)c(CN)c(-c2ccc(C)cc2)c1CC(=O)N1CCC[C@H]1C(N)=O [Example 87]

Reference: patent publication US20090088419A1, “PYRIDYL ACETIC ACID COMPOUNDS” (TAKEDA PHARMACEUTICAL COMPANY LIMITED, priority 2005, published 2009)
